Experimental data as given in the supplement of paper PMC10307832.

Tests used:
Assay in all cases: relative viability (nuclei count vs DMSO), 5 days (fraction); higher = more cells survive
HCC-78 = test system: HCC-78
Summary of the method: (§1)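 Lung cancer cell lines, seeded in 1536-well plates, were treated the following day by pin tool with a single drug or with five library-drug doses (not always all listed) in √10 steps on top of a fixed anchor-drug dose. Cells were fixed and nuclei stained in one step after 5 days, and nuclei were counted. Relative viability is the nuclei count for treated wells divided by that for vehicle wells, reported as medians of duplicate plates.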

NCI-H460 = test system: NCI-H460
Summary of the method: as §1

NCI-H358 = test system: NCI-H358
Summary of the method: as §1

NCI-H1792 = test system: NCI-H1792
Summary of the method: as §1

NCI-H1944 = test system: NCI-H1944
Summary of the method: as §1

LU99A = test system: LU99A
Summary of the method: as §1

NCI-H1975 = test system: NCI-H1975
Summary of the method: as §1

UMC-11 = test system: UMC-11
Summary of the method: as §1

NCI-H1755 = test system: NCI-H1755
Summary of the method: as §1

HOP-62 = test system: HOP-62
Summary of the method: as §1

NCI-H2342 = test system: NCI-H2342
Summary of the method: as §1

HCC-366 = test system: HCC-366
Summary of the method: as §1

LCLC-97TM1 = test system: LCLC-97TM1
Summary of the method: as §1

A-427 = test system: A-427
Summary of the method: as §1

NCI-H1793 = test system: NCI-H1793
Summary of the method: as §1

NCI-H2170 = test system: NCI-H2170
Summary of the method: as §1

NCI-H1915 = test system: NCI-H1915
Summary of the method: as §1

SW 900 = test system: SW 900
Summary of the method: as §1

LXF-289 = test system: LXF-289
Summary of the method: as §1

COR-L 105 = test system: COR-L 105
Summary of the method: as §1

LC-2-ad = test system: LC-2-ad
Summary of the method: as §1

SK-LU-1 = test system: SK-LU-1
Summary of the method: as §1

EPLC-272H = test system: EPLC-272H
Summary of the method: as §1

NCI-H2085 = test system: NCI-H2085
Summary of the method: as §1

COc1cc(N2CCC(C(N)=O)CC2)ccc1Nc1nc(N)c(Cl)c(Nc2ccccc2S(=O)(=O)C(C)C)n1 [HG-5-88-01] + N=C(N)NC(=N)NCCc1ccccc1 [Phenformin] (partner 250 µM)
relative viability (HCC-78; first compound 0.04 µM): 0.602 | relative viability (HCC-78; first compound 0.1265 µM): 0.584 | relative viability (HCC-78; first compound 0.4 µM): 0.447 | relative viability (HCC-78; first compound 1.265 µM): 0.306 | relative viability (HCC-78; first compound 4 µM): 0.324 | relative viability (NCI-H460; first compound 0.04 µM): 0.497 | relative viability (NCI-H460; first compound 0.1265 µM): 0.491 | relative viability (NCI-H460; first compound 0.4 µM): 0.587 | relative viability (NCI-H460; first compound 1.265 µM): 0.51 | relative viability (NCI-H460; first compound 4 µM): 0.214 | relative viability (NCI-H358; first compound 0.04 µM): 0.268 | relative viability (NCI-H358; first compound 0.1265 µM): 0.246 | relative viability (NCI-H358; first compound 0.4 µM): 0.216 | relative viability (NCI-H358; first compound 1.265 µM): 0.129 | relative viability (NCI-H358; first compound 4 µM): 0.139 | relative viability (NCI-H1792; first compound 0.04 µM): 0.897 | relative viability (NCI-H1792; first compound 0.1265 µM): 0.647 | relative viability (NCI-H1792; first compound 0.4 µM): 0.548 | relative viability (NCI-H1792; first compound 1.265 µM): 0.525 | relative viability (NCI-H1792; first compound 4 µM): 0.291 | relative viability (NCI-H1944; first compound 0.04 µM): 0.213 | relative viability (NCI-H1944; first compound 0.1265 µM): 0.241 | relative viability (NCI-H1944; first compound 0.4 µM): 0.262 | relative viability (NCI-H1944; first compound 1.265 µM): 0.209 | relative viability (NCI-H1944; first compound 4 µM): 0.22 | relative viability (LU99A; first compound 0.04 µM): 0.801 | relative viability (LU99A; first compound 0.1265 µM): 0.78 | relative viability (LU99A; first compound 0.4 µM): 0.823 | relative viability (LU99A; first compound 1.265 µM): 0.921 | relative viability (LU99A; first compound 4 µM): 0.593 | relative viability (NCI-H1975; first compound 0.04 µM): 0.437 | relative viability (NCI-H1975; first compound 0.1265 µM): 0.416 | relative viability (NCI-H1975; first compound 0.4 µM): 0.354 | relative viability (NCI-H1975; first compound 1.265 µM): 0.365 | relative viability (NCI-H1975; first compound 4 µM): 0.188 | relative viability (UMC-11; first compound 0.04 µM): 0.336 | relative viability (UMC-11; first compound 0.1265 µM): 0.419 | relative viability (UMC-11; first compound 1.265 µM): 0.359 | relative viability (UMC-11; first compound 4 µM): 0.263 | relative viability (NCI-H1755; first compound 0.04 µM): 0.634 | relative viability (NCI-H1755; first compound 0.1265 µM): 0.612 | relative viability (NCI-H1755; first compound 0.4 µM): 0.605 | relative viability (NCI-H1755; first compound 1.265 µM): 0.616 | relative viability (NCI-H1755; first compound 4 µM): 0.521 | relative viability (HOP-62; first compound 0.04 µM): 0.662 | relative viability (HOP-62; first compound 0.1265 µM): 0.65 | relative viability (HOP-62; first compound 0.4 µM): 0.654 | relative viability (HOP-62; first compound 1.265 µM): 0.725 | relative viability (HOP-62; first compound 4 µM): 0.718 | relative viability (NCI-H2342; first compound 0.04 µM): 0.464 | relative viability (NCI-H2342; first compound 0.1265 µM): 0.538 | relative viability (NCI-H2342; first compound 0.4 µM): 0.614 | relative viability (NCI-H2342; first compound 1.265 µM): 0.506 | relative viability (NCI-H2342; first compound 4 µM): 0.6 | relative viability (HCC-366; first compound 0.04 µM): 0.685 | relative viability (HCC-366; first compound 0.1265 µM): 0.634 | relative viability (HCC-366; first compound 0.4 µM): 0.581 | relative viability (HCC-366; first compound 1.265 µM): 0.681 | relative viability (HCC-366; first compound 4 µM): 0.476 | relative viability (LCLC-97TM1; first compound 0.04 µM): 0.483 | relative viability (LCLC-97TM1; first compound 0.1265 µM): 0.42 | relative viability (LCLC-97TM1; first compound 0.4 µM): 0.394 | relative viability (LCLC-97TM1; first compound 1.265 µM): 0.357 | relative viability (LCLC-97TM1; first compound 4 µM): 0.204 | relative viability (A-427; first compound 0.04 µM): 0.36 | relative viability (A-427; first compound 0.1265 µM): 0.336 | relative viability (A-427; first compound 0.4 µM): 0.344 | relative viability (A-427; first compound 1.265 µM): 0.367 | relative viability (A-427; first compound 4 µM): 0.214 | relative viability (NCI-H1793; first compound 0.1265 µM): 0.431 | relative viability (NCI-H1793; first compound 0.4 µM): 0.375 | relative viability (NCI-H1793; first compound 4 µM): 0.221 | relative viability (NCI-H2170; first compound 0.04 µM): 0.466 | relative viability (NCI-H2170; first compound 0.1265 µM): 0.442 | relative viability (NCI-H2170; first compound 0.4 µM): 0.461 | relative viability (NCI-H2170; first compound 1.265 µM): 0.304 | relative viability (NCI-H2170; first compound 4 µM): 0.352 | relative viability (NCI-H1915; first compound 0.04 µM): 0.38 | relative viability (NCI-H1915; first compound 0.1265 µM): 0.354 | relative viability (NCI-H1915; first compound 0.4 µM): 0.381 | relative viability (NCI-H1915; first compound 1.265 µM): 0.416 | relative viability (NCI-H1915; first compound 4 µM): 0.328 | relative viability (SW 900; first compound 0.04 µM): 0.592 | relative viability (SW 900; first compound 0.1265 µM): 0.545 | relative viability (SW 900; first compound 0.4 µM): 0.622 | relative viability (SW 900; first compound 1.265 µM): 0.671 | relative viability (SW 900; first compound 4 µM): 0.408 | relative viability (LXF-289; first compound 0.04 µM): 0.565 | relative viability (LXF-289; first compound 0.1265 µM): 0.589 | relative viability (LXF-289; first compound 0.4 µM): 0.415 | relative viability (LXF-289; first compound 1.265 µM): 0.51 | relative viability (LXF-289; first compound 4 µM): 0.431 | relative viability (COR-L 105; first compound 0.04 µM): 0.61 | relative viability (COR-L 105; first compound 0.1265 µM): 0.511 | relative viability (COR-L 105; first compound 0.4 µM): 0.47 | relative viability (COR-L 105; first compound 1.265 µM): 0.324 | relative viability (COR-L 105; first compound 4 µM): 0.296 | relative viability (LC-2-ad; first compound 0.04 µM): 0.717 | relative viability (LC-2-ad; first compound 0.1265 µM): 0.69 | relative viability (LC-2-ad; first compound 0.4 µM): 0.598 | relative viability (LC-2-ad; first compound 1.265 µM): 0.472 | relative viability (LC-2-ad; first compound 4 µM): 0.415 | relative viability (SK-LU-1; first compound 0.04 µM): 0.581 | relative viability (SK-LU-1; first compound 0.1265 µM): 0.594 | relative viability (SK-LU-1; first compound 0.4 µM): 0.507 | relative viability (SK-LU-1; first compound 1.265 µM): 0.463 | relative viability (SK-LU-1; first compound 4 µM): 0.288 | relative viability (EPLC-272H; first compound 0.04 µM): 0.352 | relative viability (EPLC-272H; first compound 0.1265 µM): 0.34 | relative viability (EPLC-272H; first compound 0.4 µM): 0.274 | relative viability (EPLC-272H; first compound 1.265 µM): 0.253 | relative viability (EPLC-272H; first compound 4 µM): 0.0477 | relative viability (NCI-H2085; first compound 0.04 µM): 0.656 | relative viability (NCI-H2085; first compound 0.1265 µM): 0.799 | relative viability (NCI-H2085; first compound 0.4 µM): 0.685 | relative viability (NCI-H2085; first compound 1.265 µM): 0.622 | relative viability (NCI-H2085; first compound 4 µM): 0.395
